# Patent publication US5679712A, “Substituted benzoylguanidines, process for their preparation, their use as a pharmaceutical or diagnostic, and pharmaceutical containing them” (priority 1995, dated 1997)
# Counter-ions that a name gives are not always drawn.
# How the values were obtained:
# [1] = biological target: T1, Na^+ /H^+ exchanger of rabbit erythrocytes (Oryctolagus cuniculus, UniProt P23791); assay: Inhibition of the Na^+/H^+ exchanger of rabbit erythrocytes (amiloride-sensitive sodium influx, flame photometry); assay type: cell-based, rabbit (New Zealand White); details: cholesterol-fed rabbits, hyperosmolar salt/sucrose medium, pH 7.4, 37° C.
# T1 construct: endogenous in cells; host or cells: erythrocytes (whole blood samples) of New Zealand White rabbits (Ivanovas) fed 2% cholesterol
# T1 sequence (P23791 whole entry): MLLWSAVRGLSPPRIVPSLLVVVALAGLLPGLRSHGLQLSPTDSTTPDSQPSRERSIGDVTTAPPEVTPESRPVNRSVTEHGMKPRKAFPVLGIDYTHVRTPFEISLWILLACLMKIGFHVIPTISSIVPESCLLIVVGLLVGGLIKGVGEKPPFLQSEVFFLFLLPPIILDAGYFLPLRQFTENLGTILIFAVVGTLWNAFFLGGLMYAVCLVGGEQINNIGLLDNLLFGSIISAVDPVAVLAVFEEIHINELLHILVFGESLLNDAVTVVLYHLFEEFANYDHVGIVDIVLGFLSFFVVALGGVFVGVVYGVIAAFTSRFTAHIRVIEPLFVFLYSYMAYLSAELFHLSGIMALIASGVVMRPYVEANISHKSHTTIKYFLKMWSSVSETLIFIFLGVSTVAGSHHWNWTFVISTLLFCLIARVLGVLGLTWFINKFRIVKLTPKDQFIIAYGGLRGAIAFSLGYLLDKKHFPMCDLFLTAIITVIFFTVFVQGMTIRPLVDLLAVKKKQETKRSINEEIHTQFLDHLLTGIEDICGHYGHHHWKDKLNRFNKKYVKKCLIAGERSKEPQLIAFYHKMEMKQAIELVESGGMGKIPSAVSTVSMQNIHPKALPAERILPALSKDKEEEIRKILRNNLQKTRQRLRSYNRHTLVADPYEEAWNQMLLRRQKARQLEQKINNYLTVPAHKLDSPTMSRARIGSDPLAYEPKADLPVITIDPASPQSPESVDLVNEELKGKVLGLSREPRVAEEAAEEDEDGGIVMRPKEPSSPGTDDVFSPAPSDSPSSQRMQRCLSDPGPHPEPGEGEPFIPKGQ
# Source text: Inhibition of the Na^+ /H^+ exchanger of rabbit erythrocytes
# New Zealand White rabbits (Ivanovas) were given a standard diet containing 2% cholesterol for six weeks in order to activate Na^+ /H^+ exchange and thus to be able to determine, by flame photometry, the influx of Na^+ into the erythrocytes by way of Na^+ /H^+ exchange. The blood was removed from the aural arteries and rendered incoagulable with 25 IU of potassium heparin. A portion of each sample was used to determine the hematocrit in duplicate by centrifugation. Aliquots of 100 μl in each case were used for measuring the initial content of Na^+ in the erythrocytes.
# In order to determine the amiloride-sensitive sodium influx, 100 μl of each blood sample were in each case incubated in 5 ml of a hyperosmolar salt/sucrose medium (mmol/l: 140 NaCl, 3 KCl, 150 sucrose, 0.1 ouabain, 20 tris-hydroxymethylaminomethane) at pH 7.4 and 37° C. After that, the erythrocytes were washed three times with ice-cold MgCl2 /ouabain solution (mmol/l: 112 MgCl2, 0.1 ouabain), and hemolyzed in 2.0 ml of distilled water. The intracellular content of sodium was determined by flame photometry.
# The net influx of Na^+ was calculated from the difference between the initial sodium values and the sodium content of the erythrocytes following incubation. The amiloride-inhibitable sodium influx was obtained from the difference in the sodium content of the erythrocytes following incubation with and without 3×10^-4 mol/l amiloride. The same procedure was used for the compounds according to the invention.
# rats' hearts = details: isolated rat hearts; cited from earlier work
IC50 [1],Structure (SMILES),"potency relative to amiloride, ventricular fibrillation model (rats' hearts)"
2 µM,"CC(=O)c1cc(C(=O)N=C(N)N)ccc1O [Example 1, 3-Acetyl-4-hydroxybenzoylguanidine]",–
1 µM,"COc1ccc(C(=O)N=C(N)N)cc1C(C)=O [Example 2, 3-Acetyl-4-methoxybenzoylguanidine hydrochloride]",–
1.1 µM,"CC(=O)c1cc(C(=O)N=C(N)N)ccc1OC(C)C [Example 3, 3-Acetyl-4-isopropoxybenzoylguanidine hydrochloride]",–
1.2 µM,"CC(=O)c1cc(C(=O)N=C(N)N)ccc1OCc1ccccc1 [Example 4, 3-Acetyl-4-benzyloxybenzoylguanidine hydrochloride]",–
–,CCN(c1nc(N)c(C(=O)NC(=N)N)nc1Cl)C(C)C [ethylisopropylamiloride],even more potent than amiloride itself
